Experimental data as given in US12006355B2, “Nanobodies against cystic fibrosis transmembrane conductance regulator (CFTR) inhibitory factor (Cif)” (priority 2017, dated 2024).
Where “and” joins values, the source holds several entries; their conditions need not be identical. Equal values may be shown once.

Columns and labels:
Cif [1] = molecular target: T1, Cif (Pseudomonas aeruginosa, UniProt A0A0H2ZD27); assay: Competitive or displacement sandwich ELISA (dsELISA) with Nb 219; format: binding
T1 construct: made in house
T1 sequence (A0A0H2ZD27 25-319 limits assumed): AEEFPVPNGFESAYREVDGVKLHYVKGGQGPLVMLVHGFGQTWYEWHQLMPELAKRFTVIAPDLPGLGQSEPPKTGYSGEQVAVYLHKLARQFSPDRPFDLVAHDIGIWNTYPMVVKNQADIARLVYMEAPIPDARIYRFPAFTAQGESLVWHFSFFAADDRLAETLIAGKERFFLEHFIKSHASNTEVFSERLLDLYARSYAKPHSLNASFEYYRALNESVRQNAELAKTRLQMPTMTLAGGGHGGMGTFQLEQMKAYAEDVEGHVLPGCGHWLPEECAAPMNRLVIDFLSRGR
Description: 2). Competitive or Displacement Sandwich assay. A 96-well plate was coated with pAb at 3 μg/mL, 100 μL per well at RT for 1 h. The plate was blocked with 1% skimmed milk in PBST at RT for at least 2 h. Cif in PBS was loaded at 20 ng/mL, 100 μL/well and incubated for 1 h at RT. Following 5 times wash with PBST, a serial dilution of small molecule synthetic inhibitors in PBS containing 20% methanol at 50 μL/well was loaded, followed by 50 μL/well of VHH at 0.1 μg/mL (or 5 ng/well) in PBS and incubated for 1 h at RT. Mouse anti-HA-HRP conjugate was added at 100 μl/well in a 1:3000 dilution as instructed by manufacturer. The plate was incubated for 1h at RT and washed 5 times. The plate was developed for 10 min with substrate solution added at 100 μl/well. The reaction was stopped by addition of 2M H2SO4 (50 μl/well) and absorbance was read at 450 nm. SigmaPlot 11.0 software was used for curve fitting and data analysis.
Development of nanobody-based screening assay. […] In this assay, the plate was coated with polyclonal anti-Cif antibody (pAb) that captured Cif-protein. Inhibitory anti-Cif Nb in role of a reporter was added at constant concentration together with a serial dilution of a tested inhibitor. […] In this assay, the amount of anti-Cif pAb loaded in the plate was optimized first. […] Second, the amount of Cif-protein captured on pAb was optimized. […] Both nanobodies 113 and 219 were evaluated in the inhibitory assay.

Cif [2] = molecular target: T1, Cif; assay: biochemical; settings: Fluorescent assay IC50, Table 7, small molecule inhibitors
Description: Fluorescent-based Cif Inhibitory assay. Activity of enzyme was measured using a sensitive fluorescent-based assay similar to the method previously described for other EHs (29,30). Cyano(6-methoxynaphthalen-2-yl)methyl glycidyl carbonate (CMNGC) was used as a fluorescent reporter substrate. […] A schematic of the assay is depicted in FIG. 1.
Reported IC50 values are the average of triplicates with at least two data points above and at least two below the IC50. […] Control experiments without Cif (inhibitor/VHH and substrate) were used to evaluate the intrinsic fluorescence of inhibitors.

Cif [3] = molecular target: T1, Cif; assay: Octet bio-layer interferometry; format: binding; settings: steady state analysis, 30° C.
Description: Octet Bio-Layer Interferometry: KD of Cif and their inhibitors was determined by Bio-Layer Interferometry using an Octet Red instrument (ForteBio). Recombinant Cif-His was prepared as described previously (20,29). Stocks of purified proteins were stored at 4° C. until used.

SMILES | EC50 (Cif [1]) [nM] | IC50 (Cif [2]) | Kd (Cif [3]) | fold more potent than 8c (Cif [1]; nanobody-based inhibitory sandwich ELISA) [fold]
O=C(O)CC(=O)Nc1cc(Cl)c(Oc2ccc(O)cc2)c(Cl)c1 [Compound 1, 3-((3,5-dichloro-4-(4-hydroxyphenoxy)phenyl)amino)-3-oxopropanoic acid, reference compound] | > 200000 | > 50000 nM |  | 
NC(=O)c1ccc(-c2cc(Oc3c(Cl)cc(N)cc3Cl)ccc2O)cc1 [Compound 7, 5′-(4-amino-2,6-dichlorophenoxy)-2′-hydroxy-[1,1′-biphenyl]-4-carboxamide] | 700 | ~500 nM and 550 nM | 900 nM | 
CCC(=O)Nc1cc(Cl)c(Oc2ccc(O)c(-c3ccc(C(N)=O)c(F)c3)c2)c(Cl)c1 [Compound 8, 5′-(2,6-dichloro-4-propionamidophenoxy)-3-fluoro-2′-hydroxy-[1,1′-biphenyl]-4-carboxamide] | 200 | ~500 nM and 470 nM | 160 nM and 200 nM | 1
